ChEMBL document CHEMBL2331505, “Synthesis of quinoline derivatives: discovery of a potent and selective phosphodiesterase 5 inhibitor for the treatment of Alzheimer's disease” (Eur J Med Chem, 2013)

How the values were obtained:
[1] = target: cGMP-specific 3',5'-cyclic phosphodiesterase (Homo sapiens, UniProt O76074); assay: Inhibition of PDE5 (unknown origin) using FAM-cGMP as substrate after 60 mins by fluorescence assay
Homo sapiens [2] = species: Homo sapiens; assay: Selectivity ratio of IC50 for PDE4 (unknown origin) to IC50 for PDE5 (unknown origin)
Phosphodiesterase 4 = Phosphodiesterase 4 (Homo sapiens, UniProt P27815+Q08499+Q07343+Q08493); assay: Inhibition of PDE4 (unknown origin) using FAM-cAMP as substrate after 60 mins by fluorescence assay; type: protein assay
Phosphodiesterase 1 = Phosphodiesterase 1 (Homo sapiens, UniProt P54750+Q01064+Q14123); assay: Inhibition of PDE1 (unknown origin) using FAM-cGMP and FAM-cAMP as substrate after 60 mins by fluorescence assay; type: protein assay
Homo sapiens [3] = species: Homo sapiens; assay: Selectivity ratio of IC50 for PDE8 (unknown origin) to IC50 for PDE5 (unknown origin)
[4] = target: cAMP and cAMP-inhibited cGMP 3',5'-cyclic phosphodiesterase 10A (Homo sapiens, UniProt Q9Y233); assay: Inhibition of PDE10 (unknown origin) using FAM-cGMP and FAM-cAMP as substrate after 60 mins by fluorescence assay
Sequence of cAMP and cAMP-inhibited cGMP 3',5'-cyclic phosphodiesterase 10A (Q9Y233 whole entry): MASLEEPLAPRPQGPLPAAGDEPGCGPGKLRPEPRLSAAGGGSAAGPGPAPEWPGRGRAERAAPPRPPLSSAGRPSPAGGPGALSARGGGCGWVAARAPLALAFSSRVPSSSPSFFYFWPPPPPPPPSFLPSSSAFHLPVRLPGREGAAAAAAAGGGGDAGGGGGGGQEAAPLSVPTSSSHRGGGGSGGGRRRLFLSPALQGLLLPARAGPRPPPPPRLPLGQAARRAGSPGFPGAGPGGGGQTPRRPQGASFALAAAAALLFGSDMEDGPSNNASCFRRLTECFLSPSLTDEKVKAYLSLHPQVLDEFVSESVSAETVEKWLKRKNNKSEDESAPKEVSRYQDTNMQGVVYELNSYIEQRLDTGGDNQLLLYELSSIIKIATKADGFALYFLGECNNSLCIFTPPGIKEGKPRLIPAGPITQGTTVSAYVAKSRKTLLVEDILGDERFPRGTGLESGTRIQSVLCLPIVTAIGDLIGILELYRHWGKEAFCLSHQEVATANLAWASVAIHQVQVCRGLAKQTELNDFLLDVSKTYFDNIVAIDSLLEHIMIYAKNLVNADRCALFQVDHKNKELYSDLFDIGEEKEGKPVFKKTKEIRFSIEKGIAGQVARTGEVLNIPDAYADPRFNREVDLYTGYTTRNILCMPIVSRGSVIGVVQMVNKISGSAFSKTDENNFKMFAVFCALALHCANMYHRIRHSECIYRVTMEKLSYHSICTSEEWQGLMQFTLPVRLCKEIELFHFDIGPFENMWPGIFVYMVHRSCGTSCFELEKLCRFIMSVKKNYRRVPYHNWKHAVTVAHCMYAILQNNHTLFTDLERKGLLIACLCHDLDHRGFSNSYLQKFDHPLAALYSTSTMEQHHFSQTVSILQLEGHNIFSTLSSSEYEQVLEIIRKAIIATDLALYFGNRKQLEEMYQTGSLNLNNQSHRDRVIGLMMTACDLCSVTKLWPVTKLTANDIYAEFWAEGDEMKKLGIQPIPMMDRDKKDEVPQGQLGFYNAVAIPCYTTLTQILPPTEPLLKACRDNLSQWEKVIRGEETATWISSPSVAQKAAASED

Phosphodiesterase 6 = assay: Inhibition of PDE6 (unknown origin) using FAM-cGMP as substrate after 60 mins by fluorescence assay; type: protein assay, Homo sapiens
Phosphodiesterase 8 = Phosphodiesterase 8 (Homo sapiens, UniProt O95263+O60658); assay: Inhibition of PDE8 (unknown origin) using FAM-cAMP as substrate after 60 mins by fluorescence assay; type: protein assay
Homo sapiens [5] = species: Homo sapiens; assay: Selectivity ratio of IC50 for PDE9 (unknown origin) to IC50 for PDE5 (unknown origin)
Homo sapiens [6] = species: Homo sapiens; assay: Selectivity ratio of IC50 for PDE11 (unknown origin) to IC50 for PDE5 (unknown origin)
Homo sapiens [7] = species: Homo sapiens; assay: Selectivity ratio of IC50 for PDE7 (unknown origin) to IC50 for PDE5 (unknown origin)
Homo sapiens [8] = species: Homo sapiens; assay: Selectivity ratio of IC50 for PDE6 (unknown origin) to IC50 for PDE5 (unknown origin)
Phosphodiesterase 7 = Phosphodiesterase 7 (Homo sapiens, UniProt Q13946+Q9NP56); assay: Inhibition of PDE7 (unknown origin) using FAM-cAMP as substrate after 60 mins by fluorescence assay; type: protein assay
Homo sapiens [9] = species: Homo sapiens; assay: Selectivity ratio of IC50 for PDE3 (unknown origin) to IC50 for PDE5 (unknown origin)
Homo sapiens [10] = species: Homo sapiens; assay: Selectivity ratio of IC50 for PDE10 (unknown origin) to IC50 for PDE5 (unknown origin)
Homo sapiens [11] = species: Homo sapiens; assay: Selectivity ratio of IC50 for PDE2 (unknown origin) to IC50 for PDE5 (unknown origin)
[12] = target: cGMP-dependent 3',5'-cyclic phosphodiesterase (Homo sapiens, UniProt O00408); assay: Inhibition of PDE2 (unknown origin) using FAM-cGMP and FAM-cAMP as substrate after 60 mins by fluorescence assay
Sequence of cGMP-dependent 3',5'-cyclic phosphodiesterase (O00408 whole entry): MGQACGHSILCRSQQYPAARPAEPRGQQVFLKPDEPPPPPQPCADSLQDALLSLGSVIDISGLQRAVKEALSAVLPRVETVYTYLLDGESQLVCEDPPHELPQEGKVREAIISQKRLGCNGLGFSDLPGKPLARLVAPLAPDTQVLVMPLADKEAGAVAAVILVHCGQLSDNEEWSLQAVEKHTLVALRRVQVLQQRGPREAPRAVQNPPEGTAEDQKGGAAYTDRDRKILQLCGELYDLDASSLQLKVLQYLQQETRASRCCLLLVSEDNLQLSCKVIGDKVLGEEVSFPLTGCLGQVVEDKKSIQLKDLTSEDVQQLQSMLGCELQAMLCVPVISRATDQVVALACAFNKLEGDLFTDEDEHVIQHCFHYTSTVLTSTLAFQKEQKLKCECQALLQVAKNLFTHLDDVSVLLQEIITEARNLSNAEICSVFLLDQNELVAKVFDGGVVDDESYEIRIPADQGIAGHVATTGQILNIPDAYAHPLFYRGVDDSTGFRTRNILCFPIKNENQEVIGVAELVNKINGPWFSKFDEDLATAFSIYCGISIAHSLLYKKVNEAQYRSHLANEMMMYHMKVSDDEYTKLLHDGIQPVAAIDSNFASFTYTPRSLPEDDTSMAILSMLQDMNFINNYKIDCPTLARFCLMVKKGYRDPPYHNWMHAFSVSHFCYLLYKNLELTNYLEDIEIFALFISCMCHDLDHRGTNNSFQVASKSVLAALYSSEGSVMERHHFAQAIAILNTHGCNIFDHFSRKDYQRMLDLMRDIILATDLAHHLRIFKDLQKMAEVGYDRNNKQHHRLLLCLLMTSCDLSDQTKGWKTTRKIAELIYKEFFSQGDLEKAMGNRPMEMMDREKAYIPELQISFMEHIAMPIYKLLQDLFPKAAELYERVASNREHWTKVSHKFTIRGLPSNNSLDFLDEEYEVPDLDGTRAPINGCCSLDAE

[13] = target: High affinity cGMP-specific 3',5'-cyclic phosphodiesterase 9A (Homo sapiens, UniProt O76083); assay: Inhibition of PDE9 (unknown origin) using FAM-cGMP as substrate after 60 mins by fluorescence assay
Sequence of High affinity cGMP-specific 3',5'-cyclic phosphodiesterase 9A (O76083 whole entry): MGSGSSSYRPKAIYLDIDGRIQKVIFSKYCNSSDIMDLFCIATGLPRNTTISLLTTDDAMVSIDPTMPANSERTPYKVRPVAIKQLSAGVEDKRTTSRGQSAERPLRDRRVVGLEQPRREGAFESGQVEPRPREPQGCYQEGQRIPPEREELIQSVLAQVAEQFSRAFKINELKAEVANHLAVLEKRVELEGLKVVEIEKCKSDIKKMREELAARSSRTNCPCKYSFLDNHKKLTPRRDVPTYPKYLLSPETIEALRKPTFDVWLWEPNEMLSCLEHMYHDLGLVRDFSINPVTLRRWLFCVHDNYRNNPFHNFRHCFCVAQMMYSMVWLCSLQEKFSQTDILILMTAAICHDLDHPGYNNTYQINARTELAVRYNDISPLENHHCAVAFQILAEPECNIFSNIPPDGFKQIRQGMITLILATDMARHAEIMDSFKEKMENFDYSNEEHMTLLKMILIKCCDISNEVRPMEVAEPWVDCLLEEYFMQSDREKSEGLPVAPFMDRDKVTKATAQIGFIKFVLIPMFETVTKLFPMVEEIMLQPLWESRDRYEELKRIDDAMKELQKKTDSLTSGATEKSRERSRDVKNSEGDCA

Phosphodiesterase 3 = Phosphodiesterase 3 (Homo sapiens, UniProt Q14432+Q13370); assay: Inhibition of PDE3 (unknown origin) using FAM-cGMP and FAM-cAMP as substrate after 60 mins by fluorescence assay; type: protein assay
Homo sapiens [14] = species: Homo sapiens; assay: Selectivity ratio of IC50 for PDE1 (unknown origin) to IC50 for PDE5 (unknown origin)
[15] = target: Dual 3',5'-cyclic-AMP and -GMP phosphodiesterase 11A (Homo sapiens, UniProt Q9HCR9); assay: Inhibition of PDE11 (unknown origin) using FAM-cGMP and FAM-cAMP as substrate after 60 mins by fluorescence assay
Sequence of Dual 3',5'-cyclic-AMP and -GMP phosphodiesterase 11A (Q9HCR9 whole entry): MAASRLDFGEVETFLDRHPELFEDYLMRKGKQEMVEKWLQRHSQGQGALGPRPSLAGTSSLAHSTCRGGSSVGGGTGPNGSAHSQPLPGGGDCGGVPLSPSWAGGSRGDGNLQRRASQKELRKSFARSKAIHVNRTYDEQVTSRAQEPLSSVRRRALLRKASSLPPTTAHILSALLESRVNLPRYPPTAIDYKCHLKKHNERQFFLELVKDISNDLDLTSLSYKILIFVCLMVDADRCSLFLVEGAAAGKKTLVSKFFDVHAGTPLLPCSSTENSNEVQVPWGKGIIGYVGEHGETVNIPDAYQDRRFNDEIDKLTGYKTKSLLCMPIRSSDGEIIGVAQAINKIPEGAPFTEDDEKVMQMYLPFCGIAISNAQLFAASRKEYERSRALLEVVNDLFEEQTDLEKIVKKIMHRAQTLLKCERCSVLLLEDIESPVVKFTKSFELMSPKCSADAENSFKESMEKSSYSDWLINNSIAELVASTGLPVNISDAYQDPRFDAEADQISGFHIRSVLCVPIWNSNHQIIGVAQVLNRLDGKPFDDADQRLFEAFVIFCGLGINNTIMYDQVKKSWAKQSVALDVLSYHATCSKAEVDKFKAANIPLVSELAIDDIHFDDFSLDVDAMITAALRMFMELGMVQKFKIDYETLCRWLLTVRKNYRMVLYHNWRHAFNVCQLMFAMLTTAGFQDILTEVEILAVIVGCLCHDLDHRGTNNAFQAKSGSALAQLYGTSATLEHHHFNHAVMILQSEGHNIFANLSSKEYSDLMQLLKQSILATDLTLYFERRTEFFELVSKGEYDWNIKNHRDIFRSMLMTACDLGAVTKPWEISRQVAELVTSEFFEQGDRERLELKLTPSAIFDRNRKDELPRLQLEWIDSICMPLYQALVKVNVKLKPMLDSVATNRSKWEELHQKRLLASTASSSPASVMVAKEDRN

COc1ccc(CNc2c(CO)cnc3c(N4CCOCC4)cc(C#N)cc23)cc1Cl
0.00063 µM: IC50 [1]

COc1ccc(CNc2c(CO)cnc3c(NC4CC4)cc(C#N)cc23)cc1Cl
0.0041 µM: IC50 [1]

COc1ccc(CNc2c(CO)cnc3c(NCCN(C)C)cc(C#N)cc23)cc1Cl
0.0043 µM: IC50 [1]

COc1ccc(CNc2c(CO)cnc3c(N(C)C)cc(C#N)cc23)cc1Cl
> 10 µM: IC50 (Phosphodiesterase 4) | IC50 (Phosphodiesterase 1) | IC50 [4] | IC50 (Phosphodiesterase 8) | IC50 (Phosphodiesterase 7) | IC50 [12] | IC50 [13] | IC50 (Phosphodiesterase 3) | IC50 [15]
5.1 µM: IC50 (Phosphodiesterase 6)
> 10000: Ratio IC50 (Homo sapiens [2]) | Ratio IC50 (Homo sapiens [3]) | Ratio IC50 (Homo sapiens [5]) | Ratio IC50 (Homo sapiens [6]) | Ratio IC50 (Homo sapiens [7]) | Ratio IC50 (Homo sapiens [9]) | Ratio IC50 (Homo sapiens [10]) | Ratio IC50 (Homo sapiens [11]) | Ratio IC50 (Homo sapiens [14])
0.0004 µM: IC50 [1]
12800: Ratio IC50 (Homo sapiens [8])
